Key:
rats = conditions: cited from earlier work
mice = conditions: cited from earlier work
[1] = test system: pigs fed P-adequate corn-soybean meal basal diet; experiment: Expt 2: metatarsal and femur breaking strength, three-point bending test; format: in vivo, pig; conditions: main effect, phytase 2,000 U/kg or Sr 50 mg/kg
Protocol: Third and 4th metatarsals in both experiments and femur (right leg) in Experiment 2 were prepared by manually removing surrounding skin, muscle and other tissues. Bones were stored in closed plastic bags at 4° C. until strength analysis. Maximal breaking load was measured using an Instron 4500 Machine (Canton, Mass.) at room temperature (23° C.) by subjecting each bone to a three-point bending test^(28). During mechanical tests, force was applied to the center of the bone held by supports 2.0 cm apart for metatarsals and 3.3 cm apart for femur. The crosshead speed was set at 50 mm/min and the sample rate was 10 points/s. Final strength was determined from load-displacement curves indicating the maximum loads. The metatarsal breaking strength was expressed as the mean strength of four bones from both left and right feet of pigs in Experiment 1, and as the mean of the two bones from the right foot of pigs in Experiment 2.

[2] = test system: pigs fed P-adequate corn-soybean meal basal diet; experiment: Expt 2: BMC, BMD and bone area by dual energy X-ray absorptiometry; format: in vivo, pig; conditions: main effect, phytase 2,000 U/kg or Sr 50 mg/kg
Protocol: In Experiment 2, bone mineral content (BMC, g) and bone mineral density (BMD, g/cm^2) of 3rd and 4th metatarsals from the left foot and femur from the left leg of each pig were measured. After being thawed to room temperature, entire bones were placed on a rice bag (to remove background effects) and scanned by dual energy X-ray absorptiometry using the GE Lunar Prodigy instrument (GE Lunar, Prodigy, Madison Wis.) in the small animal scan mode. Values of BMC and BMD were predicted by analysis of scans using Prodigy software (version 10.10.038).

[3] = test system: pigs fed P-adequate corn-soybean meal basal diet; experiment: Expt 2: femur geometrical and strength properties; format: in vivo, pig; conditions: phytase 2000 U/kg and/or Sr 50 mg/kg, n=6
Protocol: A three-point bending test was conducted on the dissected bones to generate load-deformation curves with an Instron Model 5566 (Norwood, Mass.). Mechanical properties of bones were calculated using formula as previously described^(29). Bone cross sections were cut at the mid-point of loading and used to determine area moment of inertia. Cross sections were submersed for 5 min in a 0.4 mol/L sodium hypochlorite solution to remove periosteum and marrow tissue, and then embedded in blue clay (Play-Doh, Hasbro, Pawtucket, R.I.) to prevent depth-of-field distortions and to enhance contrasts. The embedded sections were scanned with a flat-bed scanner (Epson Perfection Model 3490, Long Beach, Calif.) and analyzed using Image J software (30) to measure the x-y coordinates of bone pixels.

[4] = test system: pigs fed P-adequate corn-soybean meal basal diet; experiment: Expt 2: metatarsal and femur mineral concentrations (ICP); format: in vivo, pig
Protocol: After the breaking strength analysis, samples (˜100 to 200 mg) of metatarsals in both experiments and femur in Experiment 2 from the right legs were used for mineral analysis. Cortical bones were isolated after removing attached connective tissue using a stainless steel scalpel and collecting individual shards using needle-nosed pliers with plastic-covered clamps. […] Concentrations of individual elements in the dried bone samples were measured using inductively coupled argon plasma spectrophotometer (ICAP 61E Trace Analyzer, Thermo Jarell Ash corporation, Franklin, Mass.)(31). Samples were digested in a mixture of HNO3 and HClO4 (9:1, vol/vol), and then diluted in 5% HNO3 before analysis.

[5] = main effect of Sr 50 mg/kg, P<0.0001
[6] = phytase 2000 U/kg and/or Sr 50 mg/kg, n=6

## [Br-].[Br-].[Sr+2] [strontium bromide]
rats
  LD50: 1 g/kg body weight

## [Cl-].[Cl-].[Sr+2] [strontium chloride]
mice
  LD50: 147.6 mg/kg body weight

## strontium acetate
rats
  LD50: 1.16 mmol/kg

## [I-].[I-].[Sr+2] [strontium iodide]
rats
  LD50: 800 mg/kg body weight

## O=C([O-])[O-].[Sr+2] [Sr, SrCO3]
[1]
  improvement in breaking strength of femur: 10%
  improvement in breaking strength of metatarsals: 11%
[2]
  elevation of BMD of the two bones (metatarsal, femur): 6%
  enhancement of BMC in both bones (metatarsal, femur): 6 to 8%
[3]
  femur Cross-sectional area: 151 mm^2
  femur Cross-sectional radius: 9.0 mm
  femur Maximum bending moment: 2286 kg × mm
  femur Maximum stress: 4.3 kg/mm^2
  femur Modulus of elasticity: 50 kg/mm^2
  femur Moment of inertia: 4891 mm^4
  femur Strain: 0.05
  femur Yield bending moment: 1384 kg-mm
  femur Yield stress: 2.6 kg/mm^2
[4]; [5]
  elevation of metatarsal concentration of Sr: 4 fold
  enhancement of femur concentration of Sr: 3.9 fold
[4]; [6]
  femur Cr concentration: 7.0 mg/kg
  femur Fe concentration: 6.9 mg/kg
  femur Mg concentration: 5.4 g/kg
  femur Mn concentration: 0.6 mg/kg
  femur Na concentration: 8.0 g/kg
  femur P concentration: 176.3 g/kg
  femur S concentration: 1.1 g/kg
  femur Sr concentration: 418.9 mg/kg
  femur Zn concentration: 209.6 mg/kg
  metatarsal Cr concentration: 26.6 mg/kg
  metatarsal Fe concentration: 23.5 mg/kg
  metatarsal Mg concentration: 3.5 g/kg
  metatarsal Mn concentration: 2.8 mg/kg
  metatarsal Na concentration: 6.8 g/kg
  metatarsal P concentration: 88.1 g/kg
  metatarsal S concentration: 1.0 g/kg
  metatarsal Sr concentration: 330.6 mg/kg
  metatarsal Zn concentration: 146.8 mg/kg

— patent US8192734B2, “Compositions and methods for bone strengthening” (Cornell University, priority 2007, dated 2012)
